Experimental data from ChEMBL document CHEMBL1201862, “PubChem BioAssay data set” (2004).
Active and inactive are the calls of the source.

Legend:
[1] = target: T1, Heat shock protein HSP 90-alpha (Homo sapiens, UniProt P07900); assay: Luminescence-based dose response biochemical high throughput screening assay for inhibitors of the Heat Shock Protein 90 (HSP90). [Related pubchem assays: 1831 (Summary AID.), 1846 (Confirmation screen.), 1789 (Primary screen.)]
[2] = target: T1, Heat shock protein HSP 90-alpha; type: functional, organism-based
Protein Tat = Protein Tat (Human immunodeficiency virus type 1 group M subtype B (isolate HXB2)(HIV-1), UniProt P04608); type: functional;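 also: tat binding to TAR RNA read out by fluorescence polarization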
[3] = THP-1 cell cytotoxicity, dose response, cytotoxicity control for Vif-APOBEC3G degradation inhibitor project, THP-1 cells (AID 1117359); type: functional; settings: Human immunodeficiency virus 1, THP-1
[4] = Luminescent dose response cell-based high throughput screening assay for inhibitors of the Janus kinase 2 mutant JAK2V617F. [Related pubchem assays: 1446 (Primary screen.), 1521 (Confirmation assay.), 1486 (Counter screen.)]; type: functional
Large T antigen = Large T antigen (Simian virus 40, UniProt P03070); type: functional, Betapolyomavirus macacae;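 also: Confirmatory-stage PubChem screen for compounds that inhibit SV40 T antigen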
Paired box protein Pax-8 = Paired box protein Pax-8 (Homo sapiens, UniProt Q06710); assay: inhibitors of PAX8-driven TPO luciferase reporter, dose response, RMG-I cells, cherry-pick (AID 687027); type: functional, cell-based;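 also: luciferase reporter driven by Pax8 target thyroperoxidase promoter measured by SteadyGlo luminescence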
[5] = NIH:OVCAR-3 ovarian cancer cell cytotoxicity, dose response, PAX8 inhibitor project, plate reader, dry powder samples (AID 743044); type: functional, cell-based
[6] = cytotoxicity in OVCAR8 ovarian cancer cells, dose response, PAX8 project, cell-based, plate reader, dry powder samples (AID 743197); type: functional; settings: OVCAR-8
[7] = A2780 ovarian cancer cell cytotoxicity, dose response, cytotoxicity control, plate reader, dry powder samples (AID 743046); type: functional, cell-based
[8] = IOSE-T80 ovarian epithelial cell cytotoxicity, dose response, cytotoxicity control for PAX8 inhibitor project, plate reader, dry powder samples (AID 743045); type: functional, cell-based
[9] = cytotoxicity in OV-90 ovarian cancer cells, dose response, PAX8 inhibitor project, cell-based, plate reader, dry powder, SA8 (AID 743149); type: functional
[10] = cytotoxicity dependent on PAX8, dose response, cell-based, plate reader, dry powder (AID 743049); type: functional
[11] = cytotoxicity in COV434 cells, dose response, cytotoxicity control for PAX8 inhibitor project, cell-based, plate reader, dry powder, SA7 (AID 743145); type: functional
[12] = PAX5 activity inhibitors, dose response, selectivity assay for PAX8 inhibitor project, cell-based, plate reader, dry powder samples (AID 743047); type: functional;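 also: HEK293 cells carrying a Pax5 driven CD19 promoter luciferase reporter; potency of inhibitors that lower reporter luminescence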
[13] = cytotoxicity in OVCAR4 cells, dose response, cytotoxicity control for PAX8 inhibitor project, cell-based, plate reader, dry powder, SA11 (AID 743150); type: functional; settings: OVCAR-4
[14] = PAX2 cell-based inhibition, dose response, selectivity assay for PAX8 inhibitor project, plate reader, dry powder samples (AID 743048); type: functional;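 also: HEK293 cells carrying a WT1 promoter luciferase reporter driven by expressed Pax2; potency is for inhibition of Pax2 driven reporter signal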
[15] = Late stage assay provider results from the probe development effort to identify inhibitors of the Plasmodium falciparum M18 Aspartyl Aminopeptidase (M18AAP): radiolabel-based cell-based dose response assay to identify compounds that inhibit P. falciparum growth in RBCs, Set 2..; type: functional
[16] = P. falciparum ATP4 D1247Y mutant growth inhibitors, dose response, NITD609-resistant line, SYBR Green, dry powder (AID 1159571); type: functional, cell-based;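 also: parasites synchronized at ring stage by sorbitol before testing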
[17] = P. falciparum 3D7-ScDHODH growth inhibitors, dose response, SYBR Green, dry powder samples (AID 1159570); type: functional, cell-based;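 also: parasite growth measured after 72 hours of compound exposure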
[18] = P. falciparum Dd2 growth inhibitors, dose response, SYBR Green, dry powder samples (AID 1159566); type: functional, cell-based;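 also: potency for growth inhibition with lower SYBR green DNA signal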
[19] = P. falciparum Dd2 growth inhibitors, dose response, SYBR Green, cherry-picked samples (AID 1159567); type: functional, cell-based
[20] = P. falciparum Dd2 growth inhibitors, dose response, SYBR Green, dry powder samples, set 9 (AID 1159568); type: functional, cell-based
[21] = HepG2 cell cytotoxicity, dose response, cytotoxicity control, cherry-picked samples (AID 1159577); type: functional, cell-based
[22] = cytotoxicity toward Colo320 cells – cell-based, CellTiter-Glo luminescence, IC50, dose response (AID 1117334); type: functional; settings: COLO 320
[23] = RKO cell viability reduction, dose response, CellTiter-Glo luminescence (AID 1117322); type: functional
[24] = Concentration-dependent survival of SW480 colon cancer line, luminescence detection with CellTiter-Glo, half-maximal inhibitory concentration (AID 1117338); type: functional
[25] = HeLa 4N DNA content increase, dose response, cell-based, IC50 (AID 1117351); type: functional
[26] = HCT116 cell viability decrease, GSK3B pretreatment – CellTiter-Glo, IC50, dose response (AID 1117339); type: functional; settings: HCT-116
[27] = CellTiter-Glo luminescent dose response of DLD-1 viability loss (AID 1117352); type: functional
[28] = cytotoxicity toward HCT116 cells – cell-based, CellTiter-Glo luminescence, IC50, dose response (AID 1117332); type: functional; settings: HCT-116
[29] = SNU-C1 cell viability reduction, dose response, CellTiter-Glo luminescence (AID 1117323); type: functional, cell-based
[30] = HeLa 2N DNA content increase, dose response, cell-based, IC50 (AID 1117349); type: functional
[31] = cytotoxicity toward HT-29 cells – cell-based, CellTiter-Glo luminescence, IC50, dose response (AID 1117330); type: functional

Protein Tat, sequence (P04608 whole entry): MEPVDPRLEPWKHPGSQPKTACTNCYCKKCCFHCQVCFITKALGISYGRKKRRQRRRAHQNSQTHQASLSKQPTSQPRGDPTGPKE
Paired box protein Pax-8, sequence (Q06710 whole entry): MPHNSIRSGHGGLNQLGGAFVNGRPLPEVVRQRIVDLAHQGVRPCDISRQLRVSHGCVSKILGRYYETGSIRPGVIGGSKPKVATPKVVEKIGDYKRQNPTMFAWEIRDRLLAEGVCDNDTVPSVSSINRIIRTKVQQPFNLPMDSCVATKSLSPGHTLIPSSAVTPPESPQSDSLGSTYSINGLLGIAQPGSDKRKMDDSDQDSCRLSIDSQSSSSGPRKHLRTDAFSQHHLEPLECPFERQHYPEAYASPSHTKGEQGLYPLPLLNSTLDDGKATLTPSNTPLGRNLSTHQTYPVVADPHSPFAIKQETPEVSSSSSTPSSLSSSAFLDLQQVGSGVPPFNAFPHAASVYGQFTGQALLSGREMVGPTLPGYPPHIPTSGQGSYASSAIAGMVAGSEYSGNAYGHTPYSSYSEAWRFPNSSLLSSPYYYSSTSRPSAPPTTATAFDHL
Large T antigen, sequence (P03070 whole entry): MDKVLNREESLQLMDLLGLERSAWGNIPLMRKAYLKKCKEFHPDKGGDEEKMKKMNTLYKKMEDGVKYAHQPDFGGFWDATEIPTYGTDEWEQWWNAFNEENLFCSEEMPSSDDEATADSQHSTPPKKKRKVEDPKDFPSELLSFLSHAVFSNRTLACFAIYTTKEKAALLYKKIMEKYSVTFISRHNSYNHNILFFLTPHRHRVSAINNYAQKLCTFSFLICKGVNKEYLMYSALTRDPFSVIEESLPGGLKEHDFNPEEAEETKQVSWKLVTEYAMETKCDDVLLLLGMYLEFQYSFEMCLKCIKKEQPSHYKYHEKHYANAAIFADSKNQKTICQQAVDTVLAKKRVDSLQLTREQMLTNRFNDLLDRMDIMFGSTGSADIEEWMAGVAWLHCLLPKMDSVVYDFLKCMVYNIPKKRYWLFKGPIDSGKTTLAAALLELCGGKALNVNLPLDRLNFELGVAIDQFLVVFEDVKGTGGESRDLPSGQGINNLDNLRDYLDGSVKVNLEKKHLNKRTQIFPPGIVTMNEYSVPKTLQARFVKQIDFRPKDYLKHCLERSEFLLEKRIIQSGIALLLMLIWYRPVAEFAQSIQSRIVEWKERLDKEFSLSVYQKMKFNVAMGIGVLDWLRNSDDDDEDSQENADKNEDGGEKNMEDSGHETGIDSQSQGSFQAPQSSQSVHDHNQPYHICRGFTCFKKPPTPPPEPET

With `COC(=O)c1ccc(COc2ccc3c(C)c(C)c(=O)oc3c2)o1` as the molecule, how does the IC50 [1] read?
Its IC50 is 1.07 µM (active).

Which results are given for `O=C(Nc1nc(-c2ccco2)c(-c2ccco2)s1)c1ccco1`?
AC50 [2]: 5.17 µM (active); IC50 (Protein Tat): > 100 µM (active); CC50 [3]: > 40 µM (active)

For `CCCn1c(CN(C)Cc2ccccc2)nc2c1c(=O)n(C)c(=O)n2C`, which IC50 [4] is on record?
The IC50 was 4.92 µM (active).

For `COc1ccc(CCN2C(=O)CC(Nc3ccc(N4CCOCC4)cc3)C2=O)cc1OC` (stereo not drawn), which IC50 (Protein Tat) is on record?
Its IC50 is 18.8 µM (inconclusive).

With `COC(=O)C1CCN(C(=O)c2ccc3nc(-c4cccc(OC)c4)oc3c2)CC1` as the molecule, how does the IC50 [1] read?
The IC50 was 1.05 µM (active).

For `Cc1oc2c(O)c(O)ccc2c(=O)c1-c1cnn(-c2ccccc2)c1`, which IC50 [4] is on record?
Its IC50 is 2.04 µM (active).

And the IC50 (Large T antigen)?
The IC50 was 10.2 µM (active).

For `C[C@H]1CCCCO[C@@H](CN(C)Cc2ccc(C(F)(F)F)cc2)[C@@H](C)CN([C@@H](C)CO)C(=O)c2cc(NS(=O)(=O)c3ccc(Cl)cc3)ccc2O1`, which AC50 (Paired box protein Pax-8) is on record?
Its AC50 is 4.39 µM (active).

What about the AC50 [5] of the same molecule?
The AC50 was 11 µM (active).

What about the AC50 [6] of the same molecule?
Its AC50 is 19.7 µM (active).

What about the AC50 [7] of the same molecule?
The AC50 was 0.528 µM (active).

And the AC50 [8]?
Its AC50 is 36.4 µM (active).

For `N#C[C@@H]1[C@H](c2ccc(C#CC3CCCCC3)cc2)[C@H](CO)N1S(=O)(=O)c1ccccc1`, which AC50 [9] is on record?
The AC50 was 22.2 µM (active).

And the AC50 (Paired box protein Pax-8)?
Its AC50 is 11.1 µM (active).

And the AC50 [10]?
The AC50 was 25.6 µM (active).

And the AC50 [11]?
Its AC50 is 36.6 µM (active).

What about the AC50 [12] of the same molecule?
Its AC50 is 29.9 µM (active).

What about the AC50 [13] of the same molecule?
Its AC50 is > 70 µM (inactive).

What about the AC50 [14] of the same molecule?
Its AC50 is > 32 µM (inactive).

With `CCOc1ccc2nccc(NCCc3ccc(OC)c(OC)c3)c2c1` as the molecule, how does the IC50 [15] read?
The IC50 was 1.4 µM (active).

Which IC50 [15] does the source give for `Oc1ccc(CCNc2ccnc3cc(Cl)ccc23)cc1O` here?
Its IC50 is 0.62 µM (active).

With `O=C(c1ccccc1F)N1CC(=O)N2[C@H](C1)[C@@H](c1ccc(-c3ccc(F)cc3)cc1)[C@@H]2CO` as the molecule, how does the AC50 [16] read?
The AC50 was 1.09 µM (active).

And the AC50 [17]?
Its AC50 is 1.72 µM (active).

What about the AC50 [18] of the same molecule?
Its AC50 is 0.497 µM (active).

And the AC50 [19]?
Its AC50 is 1.41 µM (active).

With `COc1ccc(S(=O)(=O)Nc2ccc3c(c2)C(=O)N([C@H](C)CO)C[C@@H](C)[C@H](CN(C)Cc2ccc(C(F)(F)F)cc2)OCCCC[C@@H](C)O3)cc1` as the molecule, how does the AC50 [20] read?
Its AC50 is 3.69 µM (active).

What does the source list for `C[C@@H]1CN([C@@H](C)CO)S(=O)(=O)c2ccc(/C=C/c3ccccc3)cc2O[C@@H]1CN(C)C(=O)Nc1ccc(F)cc1`?
AC50 [21]: 25.5 µM (active); AC50 [19]: 5.09 µM (active)

For `C[C@H]1CCCCO[C@H](CN(C)S(=O)(=O)c2ccc(F)cc2)[C@@H](C)CN([C@@H](C)CO)C(=O)c2cc(N(C)C)ccc2O1`, which AC50 [20] is on record?
The AC50 was 4.91 µM (active).

With `CCCc1cn(CC[C@H]2CC[C@@H](NS(=O)(=O)c3ccc(-c4ccccc4)cc3)[C@H](CO)O2)nn1` as the molecule, how does the AC50 [21] read?
Its AC50 is 14.8 µM (active).

What about the AC50 [19] of the same molecule?
Its AC50 is 1.31 µM (active).

Which IC50 [22] does the source give for `CC[C@H]1CN2CCc3cc(OC)c(OC)cc3[C@@H]2C[C@@H]1C[C@H]1NCCc2cc(OC)c(OC)cc21` [EMETINE] here?
The IC50 was 0.0221 µM (active).

And the IC50 [23]?
The IC50 was 0.00831 µM (active).

And the IC50 [24]?
The IC50 was 0.001 µM (active).

And the IC50 [25]?
The IC50 was > 10 µM (inactive).

And the IC50 [26]?
Its IC50 is 0.001 µM (active).

What about the IC50 [27] of the same molecule?
Its IC50 is 0.0116 µM (active).

What about the IC50 [28] of the same molecule?
The IC50 was 0.0615 µM (active).

What about the IC50 [29] of the same molecule?
Its IC50 is 0.00228 µM (active).

What about the IC50 [30] of the same molecule?
Its IC50 is > 10 µM (inactive).

And the IC50 [31]?
The IC50 was 0.0163 µM (active).
